# Measured values published in patent US20260258420A1, “COMPOSITIONS AND METHODS FOR THE TREATMENT OF HUMAN PAPILLOMAVIRUS-DRIVEN CANCERS” (priority 2023, published 2026).
# What was measured:
# [1] = test system: 16 HPV-positive and 17 HPV-negative HNSCC and cervical squamous cancer cell lines; experiment: High-throughput drug screen (HTDS), whole panel, comparison by HPV status; format: cell-based; conditions: AOC_LD as a dichotomous variable
# Method: The concordance correlation coefficient was computed to assess the reproducibility of the normalized growth rates of the 2 replicates. […] A chi-square test was applied to compare drug classification and the cluster membership. The Fisher exact test was applied to compare mutations status (wild-type and mutant) and drugs' response data (sensitive and resistant).
# The effects of 864 unique drugs from 51 classes was tested in 16 HPV-positive and 17 HPV-negative HNSCC and cervical squamous cancer cell lines (Table 2) that were characterized previously (Kaiu, et al., Oncotarget 2017; 8(49):86369-83).
# [2] = test system: 3 HPV-positive and 3 HPV-negative cell lines; experiment: Immunoblot of cleaved PARP and cleaved caspase-3; format: cell-based; conditions: 72 hours or 2 doubling times
# Method: BrdU positive apoptotic cells were detected and quantified. The bar graph indicates the percentage of apoptotic cells with fragmented DNA in HPV-positive and HPV-negative cell lines. Values are the means±the standard deviations for 3 independent experiments. FIG. 2B and FIG. 2C show immunoblots of cleaved PARP (Cl. PARP) and cleaved caspase-3 (Cl. […] UM47, UMSCC47; GAPDH, glyceraldehyde 3-phosphate dehydrogenase. Western blot analysis was performed as described previously (Ferrarotto, et al., Clin Cancer Res 2016; 22(7):1674-86). In brief, cells were lysed with ice-cold lysis buffer, and the lysates were centrifuged at 20,000×g for 10 minutes at 4° C. Cell lysates containing equal amounts of protein were resolved using sodium dodecyl sulfate-polyacrylamide gel electrophoresis, transferred to nitrocellulose membranes, and incubated with different primary antibodies. Protein expression was detected using a horseradish peroxidase-conjugated secondary antibody (Bio-Rad, Hercules, CA) and electrochemiluminescence reagent (Amersham Biosciences, Pittsburgh, PA).
# [3] = test system: PDX tumors HOSC144, HOSC19, HOSC156 (p16-positive oropharynx cancer); experiment: In vivo tumor growth study, HPV-positive PDX models; design: species or system nude mice
# Method: PDX tumors HOSC144 (FIG. 3A, FIG. 3E, FIG. 3F), HOSC19 (FIG. 3B), and HOSC156 (FIG. 3C) were implanted into the flanks of nude mice. After engraftment, mice were randomized and assigned into 1 of 2 treatment groups: vehicle (β-cyclodextrin, n=8) or alisertib (10 mg/kg, n=8). Mice were treated for 3 weeks by daily oral gavage. Tumor size was measured twice a week. FIG. 3A, FIG. 3B, and FIG. 3C show in vivo tumor growth curves for individual mice (left 3 panels). Survival (right panels) was measured using the Kaplan-Meier method. In FIG. 3D, HPV-negative UMSCC22A cells were injected subcutaneously (3×10^6 cells) on the right flanks of the mice. Once the tumor volume reached ≥60 mm^3, mice were randomized into treatment groups. Mice were treated with vehicle or 10 mg/kg alisertib by oral gavage for 5 days per week for 21 days. Tumor size was measured twice a week. […] The Ki67(%) was calculated as the ratio of proliferative cells to total cells in each field, using five random fields. […] The apoptotic (%) was calculated as the ratio of apoptotic cells to total cells in each field, using five random fields in HOSC144 PDX tumors after 8 or 21 days of treatment with either vehicle or alisertib. ** P≤0.01; *** P≤0.001. Bars, 100 μM.
# The in vivo tumor growth study was performed in accordance with the Guide for the Care and Use of Laboratory Animals of the National Institutes of Health and approved by MD Anderson's Institutional Animal Care and Use Committee. The PDX models were generated as described previously (Peng, et al., J Transl Med 2013; 11:198), and subjected to qPCR as described to determine the HPV type (Chaturvedi, et al., The Journal of Infectious Diseases 2014; 210(3):441-7; Fakhry, et al, JAMA Oncol 2019; 5(7):985-92). Briefly, tumor tissue was cut into small fragments (5-6 mm) and implanted subcutaneously into the flanks of nude mice. The skin incisions were closed with skin clips that were removed after 10 to 15 days. Once tumors reached an average of 150 to 300 mm^3, the mice were randomized into either vehicle group or alisertib group. Alisertib (Takeda Pharmaceuticals, Lexington, MA; 10 mg/kg in 10% β-cyclodextrin) was administered via oral gavage once daily on a weekly schedule of 6 days on and 1 day off. Tumors were monitored daily, and tumor volume (length×width^2×0.5) was evaluated twice per week with digital calipers. Mice were euthanized when tumors reached 2000 mm^3. The endpoint for the survival studies was the tumor burden. Survival was measured using the Kaplan-Meier method. Survival curve analysis was performed with GraphPad Prism software version 9 (RRID:SCR_002798).
# To test the effect of Aurora kinase inhibition in vivo, three patient-derived xenograft (PDX) models that were derived from patients with p16-positive oropharynx cancer [HOSC144 (HPV16, HPV52), HOSC19 (HPV18, HPV59), and HOSC 156 (HPV18)], were implanted in nude mice. A low dose of alisertib (10 mg/kg) was administered continuously for 3 weeks. […] In addition, an HPV-negative cell line with high Rb protein levels was also tested and it was observed that it was resistant to alisertib treatment (FIG. 3D).
# [4] = HOSC144 tumors, days 8 and 21, vs vehicle
smiles,measurement,setting,value
"COc1cc(Nc2ncc3c(n2)-c2ccc(Cl)cc2C(c2c(F)cccc2OC)=NC3)ccc1C(=O)O [ALISERTIB, alisertib]",efficacy in HPV-positive vs HPV-negative cell lines,[1],tended to be more effective in HPV-positive cell lines
same,caspase-3 activation and PARP cleavage,[2],selective caspase-3 activation and PARP cleavage in HPV-positive cancer cell lines
same,response after treatment was stopped,"[3]; 10 mg/kg oral gavage, 3 weeks",sustained response
same,tumor growth,"[3]; 10 mg/kg oral gavage, 3 weeks",clear evidence of tumor regression
same,survival duration,"[3]; 10 mg/kg oral gavage, 3 weeks, Kaplan-Meier",concordant increase in survival duration
same,Ki67 staining in tumors,[3]; [4],significantly lower levels of Ki67 staining
same,cleaved caspase-3 in tumors,[3]; [4],increased levels of cleaved caspase-3
